Entries after “also recorded” stand apart in the source; their conditions may differ.
Key:
RSV-A2 [1] = assay: RSV-A2 infection of A549 cells at 1 MOI, Hep-2 plaque assay titers; format: cell-based, Respiratory Syncytial Virus (RSV); conditions: 5 μM peptide
Experimental: In this study A549 cells were plated in a 24 well plate at 30,000 cells/well. The following day, the cells were treated with 5 μM of the indicated stapled SAHF peptide or volume-equivalent DMSO vehicle, followed by RSV-A2 infection at 1 MOI. The cells were infected for 2 h, and the infection medium replaced with 400 μl of DMEM containing 5% FBS and 5 μM of the indicated stapled SAHF peptide. Cells were harvested along with the supernantant 24 h post infection, vortexed for 10 sec, and the supernatant collected, leaving the cell pellet behind. Hep-2 cells were plated on a 24 well plate at 60,000 cells/well the day before use. Plaque assay was performed on Hep-2 cells using the collected supernatant and titers determined at 5 days post infection of Hep-2 cells. The results of this analysis are shown in FIG. 14 in which titers are shown as log 10 pfu/ml and the values represent the mean+/−SEM for two independent experiments (***p<0.001; ****p<0.0001).

RSV-A2 [2] = assay: Infection of A549 cells at 0.1 MOI, Hep-2 plaque assay titers: RSV-A2; format: cell-based, Respiratory Syncytial Virus (RSV); conditions: 5 μM peptide
Experimental: (§1) In this study A549 cells were plated in a 24 well plate at 30,000 cells/well. The following day, the cells were treated with 5 μM of the indicated stapled SAHF peptide or volume-equivalent DMSO vehicle, followed by infection with RSV-A2, RSV 2-20, or RSV-rA2Line19F within 30 minutes at 0.1 MOI. The supernatant was collected 24 h post infection, and applied to Hep-2 cells that were plated the day prior on a 24 well plate at 60,000 cells/well. Plaque assays were performed on Hep-2 cells using the collected supernatant and titers determined at 5 days post infection of Hep-2 cells. The results of this analysis are shown in FIGS. 15A, 15B and 15C in which titers are shown as pfu/ml and the values represent the mean+/−SEM for two independent experiments (***p<0.001; ****p<0.0001).

RSV 2-20 = assay: Infection of A549 cells at 0.1 MOI, Hep-2 plaque assay titers: RSV 2-20; format: cell-based, Respiratory Syncytial Virus (RSV); conditions: 5 μM peptide
Experimental: as §1

RSV-rA2Line19F = assay: Infection of A549 cells at 0.1 MOI, Hep-2 plaque assay titers: RSV-rA2Line19F; format: cell-based, Respiratory Syncytial Virus (RSV); conditions: 5 μM peptide
Experimental: as §1

RgRSV = assay: Intranasal RgRSV infection of BALB/c mice after intranasal peptide; format: in vivo
Experimental: One hour post treatment, three groups of mice were inoculated with a single dose of RgRSV at 1×10^6 pfu/mouse, with the fourth group receiving a mock inoculation. Mice were sacrificed at 24 hours post infection and the noses harvested, sectioned, stained with DAPI and imaged with an Olympus fluorescent microscope (FIG. 16A; original magnification 20×). Image J analysis was performed on the acquired images (FIG. 16B) and average GFP positive (green) and DAPI positive (blue) cells were calculated from eight images (4 sections) per mouse (bars represent percent GFP positive of total DAPI-positive cells present in the images and error bars represent mean+/−SEM. *, p<0.001). FIG. 16C depicts the results of hematoxylin and eosin staining of the nose sections (original magnification 20×, insets 100×) In FIG. 16C black arrows highlight thickened mucosa.

RSV-A2 [3] = assay: RSV-A2 lung infection of BALB/c mice after prophylactic intranasal peptide; format: in vivo; conditions: 125 μM intranasally, dosing and inoculation repeated at 16 hours, 4 days after second infection
Experimental: One hour post treatment, three groups of mice were inoculated with a single dose of RSV-A2 at 1×10^6 pfu/mouse. Peptide dosing and viral inoculation was repeated 16 hours post-infection. The fourth group was treated with volume-equivalent vehicle and mock-infected. Two mice from each group were sacrificed 4 days after the second infection and left lung lobes harvested after 1% paraformaldehyde perfusion, followed by cryopreservation in OCT. Sections (5 μm) were treated with 1:1000 dilution of rabbit anti-RSV polyclonal antibody (Millipore) overnight followed by anti-rabbit antibody conjugated to Alexa Fluor 555 (1:400) (red) (Molecular Probes) for 1 h. Sections were washed and mounted with medium containing DAPI (blue) and viewed with an Olympus fluorescent microscope (FIG. 17A; original magnification 20×). Image J analysis was performed on the acquired images and the percentage RSV-positive cells (red) of total DAPI-positive cells (blue) determined from 8 images (4 sections) per mice (FIG. 17B; .error bars represent mean+/−SEM; *, p<0.0001). Four days after the second infection, bronchoalveolar lavage (BAL) was performed on one mouse from each group and BAL supernatant used to determine the viral titers by plaque assay on Hep-2 cells (FIG. 17C; error bars represent mean+/−SEM of plaques counted per in vivo specimen; *, p<0.05). Also at four days after the second infection, cranial and caudal lobes of the right lung from two mice per group were snap frozen on dry ice. A lung homogenate was generated from the cranial lobe and supernatant subjected to viral titer determination (log 10 pfu/ml) (FIG. 17D; error bars represent mean+/−SEM; *, p<0.05). Total RNA was isolated from the caudal lobe of the right lung and quatitative RT-PCR was performed for the RSV-N gene. The results of this analysis are presented in FIG. 17E in which the bar graphs represent the RSV-N gene expression normalized to the mock-infected tissue.

Substance: FD8SISQVNXKINQSLAFI8KSDELLXNVNAGKST (FDXSISQVNXKINQSLAFIXKSDELLXNVNAGKST; two hydrocarbon staples; MOD_RES (3)..(3) Any amino acid; (3)..(10) Crosslink between residues; MOD_RES (10)..(10) Any amino acid; MOD_RES (20)..(20) Any amino acid; (20)..(27) Crosslink between residues; MOD_RES (27)..(27) Any amino acid) [SAHF-H, J]
- RSV-A2 infection (viral titers) (RSV-A2 [1]): inhibit RSV-A2 infection of A549 cells
- viral infection by RSV-A2 (titers) (RSV-A2 [2]): prevents viral infection
- viral infection by RSV 2-20 (titers) (RSV 2-20): prevents viral infection
- viral infection by RSV-rA2 Line 19F (titers) (RSV-rA2Line19F): prevents viral infection
- intranasal RgRSV infection (percent GFP positive cells in nose sections) (RgRSV; 125 μM intranasally one hour before RgRSV, 24 hours post infection): blocks intranasal RgRSV infection
- inflammation in nose sections (hematoxylin and eosin staining) (RgRSV; RgRSV-infected, 125 μM intranasally): comparatively decreased inflammatory cells
- RSV-A2 lung infection, by each measure (RSV-positive cells, BAL and lung homogenate titers, RSV-N gene) (RSV-A2 [3]): inhibited RSV infection; also recorded: inhibits RSV-A2 lung infection
